The subject of one experiment is VCaP cells. As to the kind of experiment: Cellular growth inhibition assay for VCaP cells, CellTiter-Glo. In kind it is cell-based, human. The settings on record: Homo sapiens, 72 hours. An outline of the steps:
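GI50 values come from four-parameter curve fits of luminescence data normalized to a zero baseline. Compound, in medium with 0.5% DMSO, was added one day after plating and left for 72 h before CellTiter-Glo 2.0 addition.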
A general note: In ATP-based viability assays light output follows the ATP content of the culture.

A further experiment has as its target T1, BRD4-BD1 (Homo sapiens, UniProt O60885).
T1 construct: made in house; host or cells: T7 phage grown in an E. coli host derived from the BL21 strain
As to the kind of experiment: Binding affinity to BRD4-BD1 (bromoKdELECT assay). Particulars: 11-point 3-fold dilution series.

The test system of another experiment is T47D cells. As to the kind of experiment: Cellular Growth Inhibition Assay for T47D Cells (CellTiter-Glo). The format is cell-based, human. Particulars: Homo sapiens, 72 hours. Put shortly:
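GI50 values derive from four-parameter regression of CellTiter-Glo 2.0 luminescence, using zero luminescence as baseline. Human breast cancer T47D cells (3000/well; DMEM, 10% FBS, 0.2 units/mL insulin) were exposed for 72 h to compound dilutions at 0.5% DMSO, with dosing starting 24 h after seeding.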

One may read the GI50 as the concentration giving 50% growth inhibition. High values mean less potent growth inhibition, low ones more potent growth inhibition. Usually Kd stands for the free concentration of one partner at which half of the binding sites on the other are occupied at equilibrium, for simple one-to-one binding. Higher therefore signals lower affinity.

On to `CCS(=O)(=O)Nc1ccc(Oc2cccc(OCCOC3CCN(c4ncc(C(=O)N[C@H]5C(C)(C)[C@H](Oc6ccc(C#N)c(Cl)c6)C5(C)C)cn4)CC3)c2)c(-c2cn(C)c(=O)c3[nH]ccc23)c1` [Compound I-6], for which the GI50 in the experiment with VCaP cells and with T47D cells was below 500 nM in each case. Also, on BRD4-BD1, the Kd is above 2500 nM.
Turning to `CCS(=O)(=O)Nc1ccc(Oc2cccc(OCCOCCOCCOC3CCN(c4ncc(C(=O)N[C@H]5C(C)(C)[C@H](Oc6ccc(C#N)c(Cl)c6)C5(C)C)cn4)CC3)c2)c(-c2cn(C)c(=O)c3[nH]ccc23)c1` [Compound I-7], the GI50 in the experiment on VCaP cells and with T47D cells was below 500 nM each time. At BRD4-BD1, this molecule displayed a Kd of 500 to 2500 nM.
For the molecule `CCS(=O)(=O)Nc1ccc(Oc2cccc(COC3CCN(c4ncc(C(=O)N[C@H]5C(C)(C)[C@H](Oc6ccc(C#N)c(Cl)c6)C5(C)C)cn4)CC3)c2)c(-c2cn(C)c(=O)c3[nH]ccc23)c1` [Compound I-18, N-((1r, 3r)-3-(3-chloro-4-cyanophenoxy)-2,2,4,4-tetramethylcyclobutyl)-2-(4-((3-(4-(ethylsulfonamido)-2-(6-methyl-7-oxo-6,7-dihydro-1H-pyrrolo[2,3-c]pyridin-4-yl)phenoxy)benzyl)oxy)piperidin-1-yl)pyrimidine-5-carboxamide], the GI50 in the experiment with VCaP cells and with T47D cells was below 500 nM in each case. The same molecule displayed a Kd at BRD4-BD1 of 500 to 2500 nM.
`CCS(=O)(=O)Cc1ccc(Oc2cccc(OCCOC3CCN(c4ncc(C(=O)N[C@H]5C(C)(C)[C@H](Oc6ccc(C#N)c(Cl)c6)C5(C)C)cn4)CC3)c2)c(-c2cn(C)c(=O)c3[nH]ccc23)c1` [Compound I-54, N-((1r, 3r)-3-(3-chloro-4-cyanophenoxy)-2,2,4,4-tetramethylcyclobutyl)-2-(4-(2-(3-(4-((ethylsulfonyl)methyl)-2-(6-methyl-7-oxo-6,7-dihydro-1H-pyrrolo[2,3-c]pyridin-4-yl)phenoxy)phenoxy)ethoxy)piperidin-1-yl)pyrimidine-5-carboxamide]: the GI50 with VCaP cells and in the experiment with T47D cells was below 500 nM each time. In addition, the Kd on BRD4-BD1 was above 2500 nM.
`Cn1cc(-c2cc(C(C)(C)O)ccc2Oc2cccc(OCCOC3CCN(c4ncc(C(=O)N[C@H]5C(C)(C)[C@H](Oc6ccc(C#N)c(Cl)c6)C5(C)C)cn4)CC3)c2)c2cc[nH]c2c1=O` [Compound I-56, N-((1r, 3r)-3-(3-chloro-4-cyanophenoxy)-2,2,4,4-tetramethylcyclobutyl)-2-(4-(2-(3-(4-(2-hydroxypropan-2-yl)-2-(6-methyl-7-oxo-6,7-dihydro-1H-pyrrolo[2,3-c]pyridin-4-yl)phenoxy)phenoxy)ethoxy)piperidin-1-yl)pyrimidine-5-carboxamide]: the GI50 in the experiment with VCaP cells and in the experiment on T47D cells was below 500 nM each time. On BRD4-BD1, this molecule displayed an equilibrium dissociation constant (Kd) of 500 to 2500 nM.
With `Cn1cc(-c2ccccc2Oc2cccc(OCCOC3CCN(c4ncc(C(=O)N[C@H]5C(C)(C)[C@H](Oc6ccc(C#N)c(Cl)c6)C5(C)C)cn4)CC3)c2)c2cc[nH]c2c1=O` [Compound I-61, N-((1r, 3r)-3-(3-chloro-4-cyanophenoxy)-2,2,4,4-tetramethylcyclobutyl)-2-(4-(2-(3-(2-(6-methyl-7-oxo-6,7-dihydro-1H-pyrrolo[2,3-c]pyridin-4-yl)phenoxy)phenoxy)ethoxy)piperidin-1-yl)pyrimidine-5-carboxamide], the GI50 in the experiment on VCaP cells and in the experiment with T47D cells was below 500 nM throughout. Further, the Kd on BRD4-BD1 was above 2500 nM.
As for `Cn1cc(-c2cc(N)ccc2Oc2cccc(OCCOC3CCN(c4ncc(C(=O)N[C@H]5C(C)(C)[C@H](Oc6ccc(C#N)c(Cl)c6)C5(C)C)cn4)CC3)c2)c2cc[nH]c2c1=O` [Compound I-62, 2-(4-(2-(3-(4-amino-2-(6-methyl-7-oxo-6,7-dihydro-1H-pyrrolo[2,3-c]pyridin-4-yl)phenoxy)phenoxy)ethoxy)piperidin-1-yl)-N-((1r, 3r)-3-(3-chloro-4-cyanophenoxy)-2,2,4,4-tetramethylcyclobutyl)pyrimidine-5-carboxamide], the GI50 is below 500 nM with VCaP cells and 500 to 1500 nM with T47D cells. Moreover, the Kd on BRD4-BD1 is above 2500 nM.
Take `CCS(=O)(=O)Nc1ccc(Oc2ccc(F)c(OCCOC3CCN(c4ncc(C(=O)N[C@H]5C(C)(C)[C@H](Oc6ccc(C#N)c(Cl)c6)C5(C)C)cn4)CC3)c2F)c(-c2cn(C)c(=O)c3[nH]ccc23)c1` [Compound I-65]: the GI50 in the experiment on VCaP cells and in the experiment on T47D cells was below 500 nM throughout. In addition, at BRD4-BD1, the Kd is 500 to 2500 nM.
In the case of `CCS(=O)(=O)Nc1ccc(Oc2cccc(N3CC(N4CCN(c5ncc(C(=O)N[C@H]6C(C)(C)[C@H](Oc7ccc(C#N)c(Cl)c7)C6(C)C)cn5)CC4)C3)c2)c(-c2cn(C)c(=O)c3[nH]ccc23)c1` [Compound I-75], the GI50 with VCaP cells and in the experiment with T47D cells was below 500 nM each time. On BRD4-BD1, the Kd fell in the range of 50 to 500 nM.
As for `CCS(=O)(=O)Nc1ccc(Oc2cccc(N3CC(OC4CCN(c5ncc(C(=O)N[C@H]6C(C)(C)[C@H](Oc7ccc(C#N)c(Cl)c7)C6(C)C)cn5)CC4)C3)c2)c(-c2cn(C)c(=O)c3[nH]ccc23)c1` [Compound I-80], the GI50 with VCaP cells and in the experiment on T47D cells was below 500 nM each time. Further, the Kd at BRD4-BD1 fell in the range of 50 to 500 nM.
For the molecule `CCS(=O)(=O)Nc1ccc(Oc2cccc(NCCOC3CCN(c4ncc(C(=O)N[C@H]5C(C)(C)[C@H](Oc6ccc(C#N)c(Cl)c6)C5(C)C)cn4)CC3)c2)c(-c2cn(C)c(=O)c3[nH]ccc23)c1` [Compound I-84], the GI50 in the experiment on VCaP cells and with T47D cells was below 500 nM in each case. The Kd on BRD4-BD1 was below 50 nM.
As to `CN(c1ccc(Oc2cccc(N3CC(N4CCN(c5ncc(C(=O)N[C@H]6C(C)(C)[C@H](Oc7ccc(C#N)c(Cl)c7)C6(C)C)cn5)CC4)C3)c2)c(-c2cn(C)c(=O)c3[nH]ccc23)c1)S(=O)(=O)C1CC1` [Compound I-88, N-((1r, 3r)-3-(3-chloro-4-cyanophenoxy)-2,2,4,4-tetramethylcyclobutyl)-2-(4-(1-(3-(2-(6-methyl-7-oxo-6,7-dihydro-1H-pyrrolo[2,3-c]pyridin-4-yl)-4-(N-methylcyclopropanesulfonamido)phenoxy)phenyl)azetidin-3-yl)piperazin-1-yl)pyrimidine-5-carboxamide], the GI50 in the experiment with VCaP cells is below 500 nM; in the experiment with T47D cells, 500 to 1500 nM. On BRD4-BD1, this molecule displayed a Kd of 500 to 2500 nM.
Consider `Cn1cc(-c2ccccc2Oc2cccc(N3CC(N4CCN(c5ncc(C(=O)N[C@H]6C(C)(C)[C@H](Oc7ccc(C#N)c(Cl)c7)C6(C)C)cn5)CC4)C3)c2)c2cc[nH]c2c1=O` [Compound I-90, N-((1r, 3r)-3-(3-chloro-4-cyanophenoxy)-2,2,4,4-tetramethylcyclobutyl)-2-(4-(1-(3-(2-(6-methyl-7-oxo-6,7-dihydro-1H-pyrrolo[2,3-c]pyridin-4-yl)phenoxy)phenyl)azetidin-3-yl)piperazin-1-yl)pyrimidine-5-carboxamide], for which the GI50 is below 500 nM in the experiment with VCaP cells and 500 to 1500 nM with T47D cells. Also, the Kd at BRD4-BD1 is above 2500 nM.
As for `CN(c1ccc(Oc2cccc(N3CC(N4CCN(c5ncc(C(=O)N[C@H]6C(C)(C)[C@H](Oc7ccc(C#N)c(Cl)c7)C6(C)C)cn5)CC4)C3)c2F)c(-c2cn(C)c(=O)c3[nH]ccc23)c1)S(=O)(=O)C1CC1` [Compound I-91], the GI50 was below 500 nM in the experiment on VCaP cells and 500 to 1500 nM in the experiment on T47D cells. This molecule showed a Kd on BRD4-BD1 of 50 to 500 nM.
In the case of `Cn1cc(-c2cc(C(C)(C)O)ccc2Oc2cccc(N3CC(N4CCN(c5ncc(C(=O)N[C@H]6C(C)(C)[C@H](Oc7ccc(C#N)c(Cl)c7)C6(C)C)cn5)CC4)C3)c2F)c2cc[nH]c2c1=O` [Compound I-92, N-((1r, 3r)-3-(3-chloro-4-cyanophenoxy)-2,2,4,4-tetramethylcyclobutyl)-2-(4-(1-(2-fluoro-3-(4-(2-hydroxypropan-2-yl)-2-(6-methyl-7-oxo-6,7-dihydro-1H-pyrrolo[2,3-c]pyridin-4-yl)phenoxy)phenyl)azetidin-3-yl)piperazin-1-yl)pyrimidine-5-carboxamide], the GI50 in the experiment with VCaP cells and in the experiment on T47D cells was below 500 nM each time. The molecule also displayed a Kd at BRD4-BD1 of 50 to 500 nM.
For the molecule `Cn1cc(-c2ccccc2Oc2cccc(N3CC(N4CCN(c5ncc(C(=O)N[C@H]6C(C)(C)[C@H](Oc7ccc(C#N)c(Cl)c7)C6(C)C)cn5)CC4)C3)c2F)c2cc[nH]c2c1=O` [Compound I-94], the GI50 with VCaP cells was above 3000 nM; in the experiment with T47D cells, 500 to 1500 nM. At BRD4-BD1, this molecule gave a Kd of 500 to 2500 nM.
As for `Cn1cc(-c2cc(C(C)(C)O)ccc2Oc2cccc(OCCN3CCN(c4ncc(C(=O)N[C@H]5C(C)(C)[C@H](Oc6ccc(C#N)c(Cl)c6)C5(C)C)cn4)CC3)c2)c2cc[nH]c2c1=O` [Compound I-96], the GI50 in the experiment on VCaP cells is below 500 nM; with T47D cells, 500 to 1500 nM. Further, on BRD4-BD1, the Kd was in the range of 500 to 2500 nM.
On to `Cn1cc(-c2ccccc2Oc2cccc(OCCN3CCN(c4ncc(C(=O)N[C@H]5C(C)(C)[C@H](Oc6ccc(C#N)c(Cl)c6)C5(C)C)cn4)CC3)c2)c2cc[nH]c2c1=O` [Compound I-98], for which the GI50 in the experiment on VCaP cells and with T47D cells was below 500 nM throughout. At BRD4-BD1, this molecule displayed a Kd above 2500 nM.
In the case of `Cn1cc(-c2cc(C(C)(C)O)ccc2Oc2cccc(OCCN3CCN(c4ncc(C(=O)N[C@H]5C(C)(C)[C@H](Oc6ccc(C#N)c(Cl)c6)C5(C)C)cn4)CC3)c2F)c2cc[nH]c2c1=O` [Compound I-99], the figures for the GI50 in the experiment with VCaP cells and in the experiment with T47D cells were below 500 nM and 500 to 1500 nM, respectively. In addition, the Kd on BRD4-BD1 lay within 500 to 2500 nM.
Regarding `Cn1cc(-c2cc(C(C)(C)O)ccc2Oc2cccc(N3CC(N4CCN(c5ncc(C(=O)N[C@H]6C(C)(C)[C@H](Oc7ccc(C#N)c(Cl)c7)C6(C)C)cn5)CC4)C3)c2)c2cc[nH]c2c1=O` [Compound I-105], the results for the GI50 in the experiment on VCaP cells and with T47D cells were below 500 nM and 500 to 1500 nM, respectively. Also, the Kd at BRD4-BD1 is 500 to 2500 nM.

(Values after patent publication US20250388605A1, “HETEROBIFUNCTIONAL COMPOUNDS AND METHODS OF TREATING DISEASE” (Halda Therapeutics OpCo, Inc., priority 2022, published 2025).)
